# From PubChem BioAssay AID1845199 (Molecular Pharmacology Branch, DTP, NCI, 2023)
# Test system: 556581-035-R-J1 tumor spheroid viability, % test/control
# Experiment: Anticancer human tumor 556581-035-R-J1 patient-derived ovarian carcinoma cell line growth inhibition
# Settings: spheroids with HUVEC and MSC; for IC50: curve of first compound; for viability, T/C: stronger effect = lower value
# Description: Multicellular complex tumor spheroid response to DNA repair inhibitors in combination with DNA-damaging drugs
# This study explores the anticancer activities of DNA-damaging drugs and inhibitors of DNA damage repair, both as single agents and in combinations. Complex tumor spheroids comprised of malignant cells, endothelial cells and mesenchymal stem cells served as an in vitro model for human solid tumors. This model system incorporates physiologically relevant features and patient-derived or established malignant cell lines with clinically relevant genetic alterations from many tumor types. Twenty-six patient-derived or established malignant cell lines were evaluated representing sarcoma, melanoma, small cell lung cancer (SCLC), non-small cell lung cancer (NSCLC), as well as bladder, ovarian and pancreatic cancers. The concentration ranges selected for each drug and investigational agent were based upon clinically achievable concentrations if the clinical Cmax of the agent was known.
# Compounds. The drugs and compounds olaparib (NSC753686), talazoparib (NSC767125), berzosertib (NSC777718), elimusertib (NSC800525), nedisertib (NSC802822), VX-984 (NSC792969), AZD-1390 (NSC803789), temozolomide (NSC362856), topotecan (NSC609699), trabectedin (NSC813783), staurosporine (NSC755774), and gemcitabine (NSC613327) were obtained from the National Cancer Institute (NCI) Developmental Therapeutics Program Chemical Repository. The FDA-approved anticancer drug set is available from the Developmental Therapeutics Program at https://dtp.cancer.gov/organization/dscb/obtaining/available_plates.htm. […] The stock solutions were prepared in dimethyl sulfoxide (DMSO, Sigma-Aldrich, St. Louis, MO, cat. D2650) at 400-fold the tested concentration and stored at -70 degrees C. Prior to their use, the stock solutions were diluted in fresh medium and the final DMSO concentration in the assay was 0.25% (v/v). All drugs and investigational agents were tested over a range starting from a high concentration at or near the clinical Cmax and decreasing in half-log increments. If the clinical Cmax for an agent had not been determined, the highest concentration tested was 10 microM.
# Cell Lines. The patient-derived cancer cell (PDC) lines: 156681-154-R-J1-PDC, 283228-195-R-J1-PDC, 287954-098-R-J1-PDC, 292921-168-R-J2-PDC, 349418-098-R-PDC, 425362-245-T-J1-PDC, 556581-035-R-J1-PDC, and BL0293-F563-PDC were received from the NCI Patient-Derived Models Repository (PDMR, https://pdmr.cancer.gov). The established cell lines HS-SY-2 (RRID:CVCL_8719), MPNST, and SYO-1 (RRID:CVCL_7146) were obtained from the Sloan Kettering Institute. The alveolar soft parts sarcoma cell line ASPS-1 (RRID:CVCL_S738) was established at the NCI and grown from internal seed stocks. The following established cell lines were purchased from the American Type Culture Collection (ATCC, Manassas, VA): G-401 (ATCC, cat. CRL-1441, RRID:CVCL_0270), SW982 (ATCC, cat. HTB-93, RRID:CVCL_1734), VA-ES-BJ (ATCC, cat. CRL-2138, RRID:CVCL_1785), NCI-H719 (ATCC, cat. CRL-5837, RRID:CVCL_1582), NCI-H196 (ATCC, cat. CRL-5823, RRID:CVCL_1509), NCI-H841 (ATCC, cat. CRL-5845, RRID:CVCL_1595), NCI-H1618 (ATCC, cat. CRL-5879, RRID:CVCL_1480), NCI-H1876 (ATCC, cat. CRL-5902, RRID:CVCL_1503), DMS 114 (ATCC, cat. CRL-2066; RRID:CVCL_1174), NCI-H211 (ATCC, cat. CRL-5824; RRID:CVCL_1529), and SW 1271 (ATCC, cat. CRL-2177, RRID:CVCL_1716). The small cell lung cancer cell line COR-L88 was purchased from Sigma-Aldrich (cat. 92031917-1VL, RRID:CVCL_1141). The non-small cell lung cancer cell lines NCI-H226 (RRID:CVCL_1544) and NCI-H322M (RRID:CVCL_1557) were established at the NCI and grown from internal seed stocks. Pooled donor human umbilical vein endothelial cells (HUVEC, Lonza, cat. CC-2519) and human mesenchymal stem cells (hMSC, Lonza, cat. PT-2501) were purchased from Lonza (Walkersville, MD).
# Cell Culture. All cells were maintained in an incubator at 37 degrees C and 5% CO2 with 95% humidity. […]
# [1] = second compound 0.003 µM, first compound 0.0949 µM
# [2] = second compound 0.003 µM, first compound 0.3 µM
# [3] = second compound 0.003 µM, first compound 0.949 µM
# [4] = second compound 0.003 µM, first compound 3 µM
# [5] = second compound 0.00949 µM, first compound 0.0949 µM
# [6] = second compound 0.00949 µM, first compound 0.3 µM
# [7] = second compound 0.00949 µM, first compound 0.949 µM
# [8] = second compound 0.00949 µM, first compound 3 µM
# [9] = second compound 0.03 µM, first compound 0.0949 µM
# [10] = second compound 0.03 µM, first compound 0.3 µM
# [11] = second compound 0.03 µM, first compound 0.949 µM
# [12] = second compound 0.03 µM, first compound 3 µM
# [13] = second compound 0.0949 µM, first compound 0.0949 µM
# [14] = second compound 0.0949 µM, first compound 0.3 µM
# [15] = second compound 0.0949 µM, first compound 0.949 µM
# [16] = second compound 0.0949 µM, first compound 3 µM
# [17] = second compound 0.3 µM, first compound 0.0949 µM
# [18] = second compound 0.3 µM, first compound 0.3 µM
# [19] = second compound 0.3 µM, first compound 0.949 µM
# [20] = second compound 0.3 µM, first compound 3 µM
# 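Further: spheroids exposed to compounds for 7 days before viability read.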
SMILES,IC50 (second compound 0.003 µM),IC50 (second compound 0.00949 µM),IC50 (second compound 0.03 µM),IC50 (second compound 0.0949 µM),IC50 (second compound 0.3 µM),"viability, T/C [1]","viability, T/C [2]","viability, T/C [3]","viability, T/C [4]","viability, T/C [5]","viability, T/C [6]","viability, T/C [7]","viability, T/C [8]","viability, T/C [9]","viability, T/C [10]","viability, T/C [11]","viability, T/C [12]","viability, T/C [13]","viability, T/C [14]","viability, T/C [15]",further results
Cn1ncnc1[C@H]1c2n[nH]c(=O)c3cc(F)cc(c23)N[C@@H]1c1ccc(F)cc1 + CC[C@@]1(O)C(=O)OCc2c1cc1n(c2=O)Cc2cc3c(CN(C)C)c(O)ccc3nc2-1,> 3 µM,> 3 µM,1.3 µM,0.0675 µM,< 0.00949 µM,93.2%,94.3%,71.1%,57.1%,82.2%,71.4%,68.5%,49.4%,63.2%,64.9%,52.9%,39.8%,45%,44.2%,36.2%,"viability, T/C (second compound 0.003 µM, first compound 0.00949 µM): 105%; viability, T/C (second compound 0.003 µM, first compound 0.03 µM): 97.7%; viability, T/C (second compound 0.00949 µM, first compound 0.00949 µM): 88.2%; viability, T/C (second compound 0.00949 µM, first compound 0.03 µM): 81.7%; viability, T/C (second compound 0.03 µM, first compound 0.00949 µM): 70%; viability, T/C (second compound 0.03 µM, first compound 0.03 µM): 67.2%; viability, T/C (second compound 0.0949 µM, first compound 0.00949 µM): 57.9%; viability, T/C (second compound 0.0949 µM, first compound 0.03 µM): 51.3%; viability, T/C [16]: 19.2%; viability, T/C (second compound 0.3 µM, first compound 0.00949 µM): 13.2%; viability, T/C (second compound 0.3 µM, first compound 0.03 µM): 13.1%; viability, T/C [17]: 12.7%; viability, T/C [18]: 11%; viability, T/C [19]: 9.44%; viability, T/C [20]: 6.18%"
O=C(c1cc(Cc2n[nH]c(=O)c3ccccc23)ccc1F)N1CCN(C(=O)C2CC2)CC1 + CC[C@@]1(O)C(=O)OCc2c1cc1n(c2=O)Cc2cc3c(CN(C)C)c(O)ccc3nc2-1,> 30 µM,> 30 µM,> 30 µM,6.48 µM,< 0.0949 µM,103%,104%,103%,95.4%,93%,95.8%,92.7%,86.9%,74.8%,77.9%,75.7%,72.9%,57.2%,58.2%,58.3%,"viability, T/C (second compound 0.003 µM, first compound 9.49 µM): 83.3%; viability, T/C (second compound 0.003 µM, first compound 30 µM): 68.5%; viability, T/C (second compound 0.00949 µM, first compound 9.49 µM): 77.7%; viability, T/C (second compound 0.00949 µM, first compound 30 µM): 68%; viability, T/C (second compound 0.03 µM, first compound 9.49 µM): 63.7%; viability, T/C (second compound 0.03 µM, first compound 30 µM): 55.1%; viability, T/C [16]: 53.4%; viability, T/C (second compound 0.0949 µM, first compound 9.49 µM): 47.2%; viability, T/C (second compound 0.0949 µM, first compound 30 µM): 38.6%; viability, T/C [17]: 16.4%; viability, T/C [18]: 17.7%; viability, T/C [19]: 15%; viability, T/C [20]: 14.6%; viability, T/C (second compound 0.3 µM, first compound 9.49 µM): 12.4%; viability, T/C (second compound 0.3 µM, first compound 30 µM): 12.9%"
